# Test results: article PMC8237569 (Proceedings of the National Academy of Sciences of the …, 2021)
# Read-outs that look alike come from different tables or passages of the source.
# How the values were obtained:
# F-ATP synthase = conditions: read-out: IC50 against F-ATP synthase; cited from earlier work
# [1] = tested on: M. tuberculosis H37Rv (ATCC 27294), wt; assay: microbe, parasite or virus in culture; type: cell-based; conditions: Mycobacterium tuberculosis, ATCC27294|H37RV
# [2] = tested on: NC1=NC2(CCCCC2)N(c2ccc(OCc3cn(CCCCOc4ccc5ccc(=O)oc5c4)nn3)cc2)C(N)=N1; assay: purified protein, by the assay type; conditions: pH 7.5
Compound,MIC50 [1],other results
COc1nc2ccc(Br)cc2cc1[C@@H](c1ccccc1)[C@@](O)(CCN(C)C)c1cccc2ccccc12 [Bedaquiline],,IC50 (F-ATP synthase): 2.5 nM
"NNC(=O)c1ccncc1 [INH, isoniazid]",400 nM,
"Nc1ccc(C(=O)O)c(O)c1 [PAS, para-aminosalicylic acid]",200 nM,
"O=[N+]([O-])c1cn2c(n1)OC[C@@H](OCc1ccc(OC(F)(F)F)cc1)C2 [PTM, pretomanid]",200 nM,
"CO[C@H]1/C=C/O[C@@]2(C)Oc3c(C)c(O)c4c(O)c(c(/C=N/N5CCN(C)CC5)c(O)c4c3C2=O)NC(=O)/C(C)=C\C=C\[C@H](C)[C@H](O)[C@@H](C)[C@@H](O)[C@@H](C)[C@H](OC(C)=O)[C@@H]1C [RIF, rifampicin]",,"MIC50 ([1]; read-out: MIC50, RIF (nM)): 1.6 nM"
Ddn (Rv3547) (Mycobacterium tuberculosis H37Rv),,Km [2]: 3.47 ± 0.51 µM
